Here are results for 5 compounds from patent US5182386A (priority 1991, dated 1993).

One test concerns the target GABAa receptor. Description: GABAa receptor (benzodiazepine site) binding, displacement of 3H-RO15-1788 [3H-Flumazenil]. The conditions noted are these: rat cortical tissue; 0.5 nM 3H-RO15-1788; 30 min at 4° C. As for the experimental part: Assays are carried out as described in Thomas and Tallman (J. Bio. Chem. 156: 9838-9842, J. Neurosci. 3:433-440, 1983). Rat cortical tissue is dissected and homogenized in 25 volumes (w/v) of 0.05M Tris HCl buffer (pH 7.4 at 4° C.). The tissue homogenate is centrifuged in the cold (4° ) at 20,000×g for 20'. The supernatant is decanted and the pellet is rehomogenized in the same volume of buffer and again centrifuged at 20,000×g. The supernatant is decanted and the pellet is frozen at -20° C. overnight. The pellet is then thawed and rehomogenized in 25 volume (original wt/vol) of buffer and the procedure is carried out twice. The pellet is finally resuspended in 50 volumes (w/vol of 0.05M Tris HCl buffer (pH 7.4 at […]).
Incubations contain […] of tissue homogenate, […] of radioligand 0.5 nM (^3 H-RO15-1788 [^3 H-Flumazenil] specific activity 80 Ci/mmol), drug or blocker and buffer to a total volume of […]. Incubations are carried for 30 min at 4° C. then are rapidly filtered through GFB filters to separate free and bound ligand. Filters are washed twice with fresh 0.05M Tris HCl buffer (pH 7.4 at 4° C. ) and counted in a liquid scintillation counter. […] diazepam is added to some tubes to determine nonspecific binding. Data are collected in triplicate determinations, averaged and % inhibition of total specific binding is calculated. Total Specific Binding=Total-Nonspecific. In some cases, the amounts of unlabeled drugs is varied and total displacement curves of binding are carried out. Data are converted to a form for the calculation of IC50 and Hill Coefficient (nH).
On the technique in general: Loss of bound radioactivity is the signal in a displacement assay; it reports binding, not function.

Another test concerns GABA receptor. The conditions noted are these: Tallman et al., 1978; cited from earlier work.

For orientation: IC50 means the concentration at which inhibition is half-maximal. A higher IC50 goes with weaker potency in that assay.

Regarding `COc1ccc(-c2nc3c[nH]c4ccccc4n-3c2=O)cc1` [Compound 1, 2-(4-methoxyphenyl)-imidazo-[1,2-a]-quinoxalin-1(5H)-one], the IC50 on GABAa receptor amounted to 33 nM.

On GABAa receptor, `COc1cccc(-c2nc3c[nH]c4ccccc4n-3c2=O)c1` [Compound 3, 2-(3-Methoxyphenyl)-imidazo-[1,2-a]-quinoxalin-1(5H)-one] returned an IC50 of 70 nM.

Compound `O=c1c(-c2ccccc2)nc2c[nH]c3ccccc3n1-2` [Compound 2, 2-Phenyl-imidazo-[1,2-a]-quinoxalin-1(5H)-one] showed an IC50 at GABAa receptor of 33 nM.

On to `CN1CCc2cc3c(cc2C1C1OC(=O)c2c1ccc1c2OCO1)OCO3` (single isomer, unassigned; (-)) [(-) bicuculline], for which the “block of enhancement of benzodiazepine binding by GABA agonists” value in the test on GABA receptor is “much less active”.

As to `CN1CCc2cc3c(cc2C1C1OC(=O)c2c1ccc1c2OCO1)OCO3` (single isomer, unassigned; (+)) [(+) bicuculline], the “block of enhancement of benzodiazepine binding by GABA agonists” value with GABA receptor is reported as “blocked”.
